In US5789412A, “Piperazides derived from arylpiperazine, processes for their preparation, their use as medicaments and pharmaceutical compositions comprising them” (Pierre Fabre Medicament, priority 1994, dated 1998) one finds EC50 and Ki data, which are given here for ten molecules.

The structures appear in SMILES notation. pEC50, pKi: −log10 of the molar value. Where a name gives a salt, the structure may show the parent alone. Read-outs that look alike come from different tables or passages of the source. A value given as a limit tells only on which side of the number the result lay.

In assay [1] the target is T1, human 5HT1Dβ receptor (Homo sapiens, UniProt P28222).
T1 construct: expressed in transfected cells; host or cells: CHO-K1
As to the kind of experiment: Inhibition of forskolin-stimulated cyclic AMP formation mediated by human 5HT1Dβ receptor in transfected CHO-K1 cells (intrinsic agonist activity). Format: cell-based. On the procedure:
(§1) Human 5HT1Dα and 5HT1Dβ receptors were cloned according to the sequences published by M. Hamblin and M. Metcalf, Mol. Pharmacol., 40, 143 (1991) and Weinshenk et al., Proc. Natl. Acad. Sci. 89, 3630 (1992).
(§2) Transitory transfection and permanent transfection of the genes for these receptors was carried out in cell lines Cos-7 and CHO-K1 using an electroporator.
Inhibition of the formation of cyclic AMP (stimulated by forskolin) mediated by the human 5HT1Dβ receptor was studied in CHO-K1 cells transfected with the receptor according to the technique described beforehand for the 5HT1B receptor (P. Pauwels and C. Palmier, Neuropharmacology, 33, 67, 1994).
**Intrinsic agonist acitivity (inhibition of the formation of cyclic AMP
induced by forskolin in CHO--K1 cells).

In assay [2] the target is T1, human 5HT1Dβ receptor. As to the kind of experiment: Binding to human 5HT1Dβ receptor ([3H]-5CT displacement). The method, then: as §1, §2
(§3) The binding of the derivatives of the present invention with the human 5HT1Dα, 5HT1Dβ and 5HT1A receptors was studied according to the method described by P. Pauwels and C. Palmier (Neuropharmacology, 33, 67, 1994).
(§4) The incubation media for these binding measurements comprise 0.4 ml of cell membrane preparation, 0.05 ml of a tritiated ligand [[3H]-5CT (final concentration: 2 nM) for the 5HT1Dα and 5HT1Dβ receptors and [3H]-8OH-DPAT (final concentration: 1 nM) for the 5HT1A receptor] and 0.05 ml of the test molecule (final concentrations of 0.1 nM to 1000 nM) or 10 μM (final concentration) of serotonin (5HT1Dα and 5HT1Dβ) or 1 μM (final concentration) of spiroxatrine (5HT1A).

Assay [3] addresses T2, human 5HT1Dα receptor (Homo sapiens, UniProt P28221).
T2 construct: expressed in transfected cells
As to the kind of experiment: Binding to human 5HT1Dα receptor ([3H]-5CT displacement). The method, then: as §1, §2, §3, §4

Assay [4] addresses T3, human 5HT1A receptor (Homo sapiens, UniProt P08908).
T3 construct: host or cells: HeLa HA7
T3 sequence (P08908 1-422): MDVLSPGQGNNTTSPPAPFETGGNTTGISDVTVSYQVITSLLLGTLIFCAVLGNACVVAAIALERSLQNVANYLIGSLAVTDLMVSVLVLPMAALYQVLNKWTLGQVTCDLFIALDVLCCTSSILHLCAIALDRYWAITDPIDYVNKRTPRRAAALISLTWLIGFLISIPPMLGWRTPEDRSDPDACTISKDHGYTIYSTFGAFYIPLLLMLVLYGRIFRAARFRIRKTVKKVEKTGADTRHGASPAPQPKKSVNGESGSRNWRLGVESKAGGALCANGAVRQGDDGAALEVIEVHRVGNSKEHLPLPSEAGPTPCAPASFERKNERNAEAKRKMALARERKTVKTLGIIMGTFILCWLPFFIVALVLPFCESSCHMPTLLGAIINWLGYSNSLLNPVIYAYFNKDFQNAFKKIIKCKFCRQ
As to the kind of experiment: Binding to human 5HT1A receptor ([3H]-8OH-DPAT displacement, HeLa HA7 cell line). The note with it: read-out: 5HT1A Ki (affinity for the receptors concerned). The source says: The binding of the derivatives of the present invention with the human 5HT1Dα, 5HT1Dβ and 5HT1A receptors was studied according to the method described by P. Pauwels and C.

[5] abbreviates: CHO-K1 cells, forskolin stimulated, read-out: 5HT1Dβ EC50 (intrinsic agonist activity, inhibition of the formation of cyclic AMP induced by forskolin).
The mark [6] stands for this setting: [3H]-5CT 2 nM, cell membrane preparation, read-out: 5HT1Dβ Ki (affinity for the receptors concerned).
Where [7] appears, read: [3H]-5CT 2 nM, cell membrane preparation, read-out: 5HT1Dα Ki (affinity for the receptors concerned).
The mark [8] stands for this setting: [3H]-8OH-DPAT 1 nM, HeLa HA7 cell line.

T1 sequence (P28222 whole entry): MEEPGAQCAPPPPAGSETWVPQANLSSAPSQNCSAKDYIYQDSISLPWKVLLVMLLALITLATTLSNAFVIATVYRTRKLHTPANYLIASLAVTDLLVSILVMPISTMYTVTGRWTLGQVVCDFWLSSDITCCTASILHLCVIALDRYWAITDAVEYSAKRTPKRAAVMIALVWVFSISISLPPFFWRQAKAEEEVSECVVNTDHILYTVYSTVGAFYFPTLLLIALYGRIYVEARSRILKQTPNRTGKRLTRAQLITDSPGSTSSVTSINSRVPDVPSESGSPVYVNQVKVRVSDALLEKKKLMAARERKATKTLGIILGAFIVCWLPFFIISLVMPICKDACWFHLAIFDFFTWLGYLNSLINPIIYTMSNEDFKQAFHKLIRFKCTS
T2 sequence (P28221 whole entry): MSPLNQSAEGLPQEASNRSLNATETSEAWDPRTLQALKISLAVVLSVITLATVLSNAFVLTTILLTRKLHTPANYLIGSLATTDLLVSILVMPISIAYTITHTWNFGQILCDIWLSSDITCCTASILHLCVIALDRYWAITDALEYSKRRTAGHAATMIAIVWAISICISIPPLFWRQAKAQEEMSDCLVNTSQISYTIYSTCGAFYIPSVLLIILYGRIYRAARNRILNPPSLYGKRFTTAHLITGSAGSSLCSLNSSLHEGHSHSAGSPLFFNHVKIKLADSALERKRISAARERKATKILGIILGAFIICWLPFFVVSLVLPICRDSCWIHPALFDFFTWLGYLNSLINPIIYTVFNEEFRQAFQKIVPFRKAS

On to `Cc1ccccc1N1CCN(C(=O)COc2ccc3cccc(N4CCN(C)CC4)c3c2)CC1` [Example 16, 2-[8-(4-Methylpiperazin-1-yl)naphthalen-2-yloxy]-1-(4-o-tolylpiperazin-1-yl)ethanone], for which, in assay [1] (setting [5]), the pEC50 is under 6.00. The figures for the negative logarithm of the Ki (pKi) in assay [2] (setting [6]), in assay [3] (setting [7]) and in assay [4] (setting [8]) were 9.55, 9.17 and 7.30, respectively.
Consider `COc1ccc(NC(=O)N2CCN(c3cccc(C)c3C)CC2)cc1N1CCN(C)CC1` [Example 5, fumarate], for which the negative-log EC50 (pEC50) in assay [1] (setting [5]) was under 6.00. Moreover, the negative logarithm of the Ki (pKi) in assay [2] (setting [6]) was 8.92; in assay [3] (setting [7]) it was 7.38; in assay [4] (setting [8]) it was 6.25.
`COc1ccc(NC(=O)N2CCN(c3ccccc3OC)CC2)cc1N1CCN(C)CC1` [Example 2, N-[4-Methoxy-3-(4-methylpiperazin-1-yl)phenyl]-4-(o-methoxyphenyl)piperazin-1-ylamide fumarate]: in assay [1] (setting [5]), the pEC50 was under 6.00. Besides, the negative logarithm of the Ki (pKi) in assay [2] (setting [6]) was 8.70; in assay [3] (setting [7]) it was 7.17.
Consider `COc1ccc(N2CCN(C(=O)Nc3ccc(OC)c(N4CCN(C)CC4)c3)CC2)cc1` [Example 3, fumarate], for which the pEC50 in assay [1] (setting [5]) is under 6.00. The pKi in assay [2] (setting [6]) was 8.08; in assay [3] (setting [7]), 6.64; in assay [4] (setting [8]), 6.00.
For the molecule `COc1ccc(NCC(=O)N2CCN(c3ccccc3C)CC2)cc1N1CCN(C)CC1` [Example 12, 2-[4-Methoxy-3-(4-methylpiperazin-1-yl)phenylamino]-1-(4-o-tolylpiperazin-1-yl)ethanone fumarate], in assay [1] (setting [5]), the pEC50 was under 6.00. In addition, the negative logarithm of the Ki (pKi) was 7.55 in assay [2] (setting [6]), 6.38 in assay [3] (setting [7]) and 5.52 in assay [4].
As to `COc1ccc(NC(=O)N2CCN(c3ccc([N+](=O)[O-])cc3)CC2)cc1N1CCN(C)CC1` [Example 6, N-[4-[4-Methoxy-3-(4-methylpiperazin-1-yl)phenyl]-4-(p-nitrophenyl)piperazin-1-ylamide fumarate], the negative-log EC50 (pEC50) in assay [1] (setting [5]) is under 6.00. The pKi in assay [2] (setting [6]) is 8.30; in assay [3] (setting [7]) it was 6.94; in assay [4] (setting [8]) it was 6.34.
In the case of `COc1ccc(NC(=O)N2CCN(c3ccccc3C)CC2)cc1N1CCN(C)CC1` [Example 1, N-[4-methoxy-3-(4-methylpiperazin-1-yl)phenyl]-4-(o-tolylpiperazin-1-ylamide fumarate], in assay [1] (setting [5]), the pEC50 is under 6.00. Also, the negative-log Ki (pKi) in assay [2] (setting [6]) is 8.64; in assay [3] (setting [7]) it was 7.32; in assay [4] (setting [8]) it was 6.40.
Turning to `COc1ccc(NC(=O)N2CCN(c3ccccc3C#N)CC2)cc1N1CCN(C)CC1` [Example 8, N-[4-Methoxy-3-(4-methylpiperazin-1-yl)phenyl]-4-(o-cyanophenyl)piperazin-1-ylamide fumarate], in assay [1] (setting [5]), the pEC50 is under 6.00. Further, the pKi is 7.95 in assay [2] (setting [6]), 6.92 in assay [3] (setting [7]) and 6.15 in assay [4] (setting [8]).
Taken in the same sequence, the figures for `COc1ccc(NC(=O)N2CCN(c3ccc4c(c3)OCO4)CC2)cc1N1CCN(C)CC1` [Example 7, N-[4-Methoxy-3-(4-methylpiperazin-1-yl)phenyl]-4-(3,4-methylenedioxy)phenylpiperazin-1-ylamide difumarate] were under 6.00, 8.09, 6.85 and 6.10.
For `CN1CCN(c2cccc3ccc(OC(=O)N4CCN(c5ccccc5)CC4)cc23)CC1` [Example 19, 8-(4-Methylpiperazin-1-yl)naphthalen-2-yl 4-phenylpiperazin-1-yloate], the negative-log EC50 (pEC50) in assay [1] is under 6.00. For the same molecule, the pKi in assay [2] is 9.30; in assay [3], 8.55; in assay [4] (setting [8]) it was 7.80.
